Assay results from US4317768A, “Dihydropyridine derivatives as stabilizers for vinyl chloride polymers” (priority 1977, dated 1982).

How the values were obtained:
[1] = Comparison with 1,4-butanediol-β-aminocrotonate and methyl-β-aminocrotonate, rigid co-polymer, 185° C.; settings: 0.5 part
Description: (a) Comparison with 1,4-butanediol-β-aminocrotonate and with methyl-β-aminocrotonate.
The following rigid co-polymer was prepared:
The sheets were heated in a ventilated oven at 185° C. and the following results were obtained: […]

[2] = Photostabilizing power, sheets exposed to the sun, co-polymer (a)
Description: The sheets were exposed to the sun and their colorations were also determined according to the GARDNER method.

[3] = Comparison with stabilizer G1, rigid co-polymer, 0.5 part, 185° C.
Source text: (b) Comparison with stabilizer G1
Stabilizer G1 is a mixture of 1,4-butanediol-β-aminocrotonate and of β-aminocrotonate of alcohols containing from 16 to 18 carbon atoms.

[4] = Static thermostability (GARDNER method), rigid PVC sheets, 210° C., 0.3 part stabilizer; settings: for coloration of the resins, in words: 0 to 3 minutes
Description: (§1) This study was carried out according to the GARDNER method, described in British Pat. No. 1,489,685.
(§2) The reference substance was 2-phenyl-indole, a well-known and widely used stabilizer.
(§3) The stabilizer (dihydropyridine or 2-phenyl-indole) and the other usual ingredients were mixed with powdered vinyl resins and the mixtures were calendered at a temperature of 160° C. to give rigid sheets.
(§4) The sheets were then heated in a thermostated oven (185° C. or 210° C.) for different intervals of time until incipient carbonization.
(§5) The coloration of the samples was compared to a standard scale of coloration, known as the GARDNER scale and was expressed in terms of the reference figures of the GARDNER scale.
(§6) This study was carried out with the following resin:
(§7) Polyvinyl chloride resin
(§8) SL 2016 is a solution of zinc-2-ethyl-hexanoate in a mixture of hydrocarbons boiling between 158° C. and 184° C.
The first trial was carried out at 210° C. with a resin containing 0.3 part by weight of stabilizer, the sheets being removed from the oven every three minutes over a period of 21 minutes.

[5] = Static thermostability (GARDNER method), rigid PVC sheets, 185° C., 0.3 part stabilizer
Description: as §1, §2, §3, §4, §5, §6, §7, §8
A second trial was performed at a temperature of 185° C., with a resin containing 0.3 part of stabilizer, the samples being removed from the oven every 6 minutes over a period of 24 minutes, then every 3 minutes until the 42nd minute (or until carbonization).

[6] = Static thermostability (GARDNER method), rigid PVC sheets, 185° C., equimolecular quantities; settings: 1.55×10^-3 mol
Description: as §1, §2, §3, §4, §5, §6, §7, §8
Finally, a trail was performed at 185° C., with resins containing equimolecular quantities of the dihydropyridines or of 2-phenyl-indole, namely 1.55×10^-3 mol. In this case too, the samples were removed from the oven every 6 minutes over a period of 24 minutes and then every 3 minutes until the 42nd minute (or until carbonization).

[7] = Photostabilizing power, tetrahydrofuran solution of plates exposed to the sun, French Pharmacopeia
Description: (§9) The photostabilizing power of the compounds of the invention was studied by exposing to the sun polyvinyl chloride plates which had been stabilized either by a dihydropyridine of the invention or by 2-phenyl-indole, or again by 2-(3'-methoxy-4'-hydroxy)-indole. This last product is an extremely valuable thermostabilizer for thermoplastic resins and is described in British Pat. No. 1,489,685.
(§10) The resin given hereunder was prepared by mixing on cylinders at 160° C.:
(§11) The plates of stabilized polyvinyl chloride, together with a plate which had not been stabilized, were stood in the sun under the same conditions and at the same time. Their colour was measured after 6 hours and 12 hours of exposure.
(§12) The coloration of the plates was determined according to two methods:
On a solution of these plates in tetrahydrofuran, the coloration of th solution being measured according to the French Pharmacopeia (IXth edition, II-338).

[8] = Photostabilizing power, PVC plates exposed to the sun, GARDNER scale
Description: as §9, §10, §11, §12
On the plates themselves, following the GARDNER scale, as in the section on thermostability,
The sign + means that the coloration lies between the lower unit and the upper half-unit. Thus, 3+ means that the coloration lies between 3 and 3.5. Similarly, the sign - means that the coloration lies between the lower half-unit and the upper unit.

CC(N)=CC(=O)OCCCCOC(=O)C=C(C)N [1,4-butanediol-β-aminocrotonate, reference compound]
coloration, GARDNER scale ([1]; 0 min): 1
coloration, GARDNER scale ([1]; 2 min): 1
coloration, GARDNER scale ([1]; 4 min): 4
coloration, GARDNER scale ([1]; 6 min): 10
coloration, GARDNER scale ([1]; 8 min): 13
coloration, GARDNER scale ([1]; 10 min): 15
coloration, GARDNER scale ([1]; 12 min): 18

CCCCOCCOC(=O)C1=C(C)NC(C)=C(C(=O)OCCOCCCC)C1 [Compound 27]
Colour in GARDNER degrees ([2]; After 24 hours): 2 GARDNER degrees
Colour in GARDNER degrees ([2]; Time 0): 1 GARDNER degrees
coloration, GARDNER scale ([3]; 0 min): 1
coloration, GARDNER scale ([3]; 2 min): 1
coloration, GARDNER scale ([3]; 4 min): 4
coloration, GARDNER scale ([3]; 6 min): 7
coloration, GARDNER scale ([3]; 8 min): 12.5
coloration, GARDNER scale ([3]; 10 min): 17
coloration, GARDNER scale ([4]; 0 min): 1
coloration, GARDNER scale ([4]; 3 min): 1
coloration, GARDNER scale ([4]; 6 min): 1
coloration, GARDNER scale ([4]; 9 min): 2
coloration, GARDNER scale ([4]; 12 min): 5
coloration, GARDNER scale ([4]; 15 min): 14
coloration, GARDNER scale ([4]; 18 min): Burnt

CC1=C(C(=O)OCc2ccccc2Cl)CC(C(=O)OCc2ccccc2Cl)=C(C)N1 [Compound 5, 2,6-Dimethyl-3,5-di-(2'-carbochloro-benzyloxy)-1,4-dihydropyridine]
coloration, GARDNER scale ([5]; 0 min): 1
coloration, GARDNER scale ([5]; 6 min): 1
coloration, GARDNER scale ([5]; 12 min): 2
coloration, GARDNER scale ([5]; 18 min): 9
coloration, GARDNER scale ([5]; 24 min): 11
coloration, GARDNER scale ([5]; 27 min): 11
coloration, GARDNER scale ([5]; 30 min): 13
coloration, GARDNER scale ([5]; 33 min): 14
coloration, GARDNER scale ([5]; 36 min): 14
coloration, GARDNER scale ([5]; 39 min): Burnt
coloration, GARDNER scale ([6]; 0 min): 1
coloration, GARDNER scale ([6]; 6 min): 1
coloration, GARDNER scale ([6]; 12 min): 1
coloration, GARDNER scale ([6]; 18 min): 5
coloration, GARDNER scale ([6]; 24 min): 10
coloration, GARDNER scale ([6]; 27 min): 11
coloration, GARDNER scale ([6]; 30 min): 13
coloration, GARDNER scale ([6]; 33 min): 14
coloration, GARDNER scale ([6]; 36 min): 15
coloration, GARDNER scale ([6]; 39 min): Burnt
coloration, GARDNER scale ([4]; 0 min): 1
coloration of the resins, in words [4]: considerably less
coloration, GARDNER scale ([4]; 3 min): 1
coloration, GARDNER scale ([4]; 6 min): 2
coloration, GARDNER scale ([4]; 9 min): 3
coloration, GARDNER scale ([4]; 12 min): 6
coloration, GARDNER scale ([4]; 15 min): 10.5
coloration, GARDNER scale ([4]; 18 min): Burnt

COc1cc(-c2cc3ccccc3[nH]2)ccc1O [2-(3'-Methoxy-4'-hydroxy-phenyl)-indole, reference compound]
Coloration of the plates FRENCH PHARMACOPEIA ([7]; exposure to sun 6h): B4 to JB4
Coloration of the plates FRENCH PHARMACOPEIA ([7]; exposure to sun 12h): B3 to JB3
Coloration of the plates GARDNER ([8]; exposure to sun 0): 1
Coloration of the plates GARDNER ([8]; exposure to sun 6h): 4
Coloration of the plates GARDNER ([8]; exposure to sun 12h): 8

COc1ccc(COC(=O)C2=C(C)NC(C)=C(C(=O)OCc3ccc(OC)cc3)C2)cc1 [Compound 4]
coloration, GARDNER scale ([5]; 0 min): 1
coloration, GARDNER scale ([5]; 6 min): 1
coloration, GARDNER scale ([5]; 12 min): 2
coloration, GARDNER scale ([5]; 18 min): 8
coloration, GARDNER scale ([5]; 24 min): 13
coloration, GARDNER scale ([5]; 27 min): 14
coloration, GARDNER scale ([5]; 30 min): 17
coloration, GARDNER scale ([5]; 33 min): 18
coloration, GARDNER scale ([5]; 36 min): Burnt
coloration, GARDNER scale ([6]; 0 min): 1
coloration, GARDNER scale ([6]; 6 min): 1
coloration, GARDNER scale ([6]; 12 min): 1
coloration, GARDNER scale ([6]; 18 min): 4
coloration, GARDNER scale ([6]; 24 min): 6
coloration, GARDNER scale ([6]; 27 min): 8
coloration, GARDNER scale ([6]; 30 min): 11
coloration, GARDNER scale ([6]; 33 min): 15
coloration, GARDNER scale ([6]; 36 min): Burnt
coloration, GARDNER scale ([4]; 0 min): 1
coloration of the resins, in words [4]: considerably less
coloration, GARDNER scale ([4]; 3 min): 1
coloration, GARDNER scale ([4]; 6 min): 2
coloration, GARDNER scale ([4]; 9 min): 4
coloration, GARDNER scale ([4]; 12 min): 6
coloration, GARDNER scale ([4]; 15 min): 11
coloration, GARDNER scale ([4]; 18 min): Burnt

COC(=O)C1=C(C)NC(C)=C(C(=O)OC)C1C [Compound 29, 2,4,6-Trimethyl-3,5-dicarbomethoxy-1,4-dihydropyridine]
Coloration of the plates FRENCH PHARMACOPEIA ([7]; exposure to sun 0): JV6
Coloration of the plates FRENCH PHARMACOPEIA ([7]; exposure to sun 6h): JV5
Coloration of the plates FRENCH PHARMACOPEIA ([7]; exposure to sun 12h): JV4
Coloration of the plates GARDNER ([8]; exposure to sun 6h): 3
Coloration of the plates GARDNER ([8]; exposure to sun 12h): 5
coloration, GARDNER scale ([4]; 0 min): 1
coloration, GARDNER scale ([4]; 3 min): 2
coloration, GARDNER scale ([4]; 6 min): 3
coloration, GARDNER scale ([4]; 9 min): 6
coloration, GARDNER scale ([4]; 12 min): 7
coloration, GARDNER scale ([4]; 15 min): 10
coloration, GARDNER scale ([4]; 18 min): 10.5
coloration, GARDNER scale ([4]; 21 min): Burnt

COC(=O)/C=C(/C)N [Methyl-β-aminocrotonate, methyl-β-aminocrotonate, reference compound]
coloration, GARDNER scale ([1]; 0 min): 1
coloration, GARDNER scale ([1]; 2 min): 1
coloration, GARDNER scale ([1]; 4 min): 5
coloration, GARDNER scale ([1]; 6 min): 12
coloration, GARDNER scale ([1]; 8 min): 14
coloration, GARDNER scale ([1]; 10 min): 17
coloration, GARDNER scale ([1]; 12 min): 18
